Experimental data published in ChEMBL document CHEMBL1201862, “PubChem BioAssay data set” (2004).
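In this assay, cells in 96-well plates receive the compound at five concentrations for 48 hours. Endpoints are linearly interpolated between the surrounding concentrations. At the GI50, growth is halved.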 Calls of active or inactive are those of the source. Rule as the data show it: active = GI50 up to about 1.1 µM and inactive = higher.

Legend:
Assay in all cases: growth of human tumour cells (NCI), 48 h
OVCAR-5 = system: OVCAR-5
SF-268 = system: SF-268
SK-OV-3 = system: SK-OV-3
IGROV-1 = system: IGROV-1
786-0 = system: 786-0
RXF 393 = system: RXF 393
HCC 2998 = system: HCC 2998
SK-MEL-2 = system: SK-MEL-2
HCT-116 = system: HCT-116
MDA-N = system: MDA-N
SN12C = system: SN12C
MDA-MB-435 = system: MDA-MB-435
SF-539 = system: SF-539
HL-60 = system: HL-60
HCT-15 = system: HCT-15
SK-MEL-5 = system: SK-MEL-5
DU-145 = system: DU-145
HT-29 = system: HT-29
M14 = system: M14
NCI-H23 = system: NCI-H23
NCI/ADR-RES = system: NCI/ADR-RES
A498 = system: A498
MOLT-4 = system: MOLT-4
NCI-H522 = system: NCI-H522
Malme-3M = system: Malme-3M
SNB-19 = system: SNB-19
A549 = system: A549
SW-620 = system: SW-620
MDA-MB-231 = system: MDA-MB-231
SNB-75 = system: SNB-75
PC-3 = system: PC-3
RPMI-8226 = system: RPMI-8226
COLO 205 = system: COLO 205
NCI-H460 = system: NCI-H460
ACHN = system: ACHN
SF-295 = system: SF-295
LOX IMVI = system: LOX IMVI
UACC-257 = system: UACC-257
U-251 = system: U-251
CAKI-1 = system: CAKI-1
SR = system: SR
T47D = system: T47D
CCRF-CEM = system: CCRF-CEM
UO-31 = system: UO-31
OVCAR-4 = system: OVCAR-4
Hs-578T = system: Hs-578T
MCF7 = system: MCF7
HOP-62 = system: HOP-62
UACC-62 = system: UACC-62
EKVX = system: EKVX
NCI-H226 = system: NCI-H226
KM12 = system: KM12
SK-MEL-28 = system: SK-MEL-28
K562 = system: K562
OVCAR-8 = system: OVCAR-8
TK-10 = system: TK-10
BT-549 = system: BT-549
OVCAR-3 = system: OVCAR-3

SMILES: NC(=O)c1nnsc1NN=O
- GI50 (OVCAR-5): > 100 µM (inactive)
- GI50 (SF-268): > 100 µM (inactive)
- GI50 (SK-OV-3): > 100 µM (inactive)
- GI50 (IGROV-1): > 100 µM (inactive)
- GI50 (786-0): > 100 µM (inactive)
- GI50 (RXF 393): > 100 µM (inactive)
- GI50 (HCC 2998): > 100 µM (inactive)
- GI50 (SK-MEL-2): > 100 µM (inactive)
- GI50 (HCT-116): > 100 µM (inactive)
- GI50 (MDA-N): > 100 µM (inactive)
- GI50 (SN12C): > 100 µM (inactive)
- GI50 (MDA-MB-435): > 100 µM (inactive)
- GI50 (SF-539): > 100 µM (inactive)
- GI50 (HL-60): > 100 µM (inactive)
- GI50 (HCT-15): > 100 µM
- GI50 (SK-MEL-5): > 100 µM (inactive)
- GI50 (DU-145): > 100 µM (inactive)
- GI50 (HT-29): > 100 µM (inactive)
- GI50 (M14): > 100 µM (inactive)
- GI50 (NCI-H23): > 100 µM (inactive)
- GI50 (NCI/ADR-RES): > 100 µM (inactive)
- GI50 (A498): > 100 µM (inactive)
- GI50 (MOLT-4): > 100 µM (inactive)
- GI50 (NCI-H522): > 100 µM (inactive)
- GI50 (Malme-3M): > 100 µM (inactive)
- GI50 (SNB-19): > 100 µM (inactive)
- GI50 (A549): > 100 µM (inactive)
- GI50 (SW-620): > 100 µM (inactive)
- GI50 (MDA-MB-231): > 100 µM (inactive)
- GI50 (SNB-75): 94.8 µM (inactive)
- GI50 (PC-3): > 100 µM (inactive)
- GI50 (RPMI-8226): > 100 µM (inactive)
- GI50 (COLO 205): > 100 µM (inactive)
- GI50 (NCI-H460): > 100 µM (inactive)
- GI50 (ACHN): > 100 µM (inactive)
- GI50 (SF-295): > 100 µM (inactive)
- GI50 (LOX IMVI): > 100 µM (inactive)
- GI50 (UACC-257): > 100 µM (inactive)
- GI50 (U-251): > 100 µM (inactive)
- GI50 (CAKI-1): > 100 µM (inactive)
- GI50 (SR): > 100 µM (inactive)
- GI50 (T47D): > 100 µM (inactive)
- GI50 (CCRF-CEM): > 100 µM (inactive)
- GI50 (UO-31): > 100 µM (inactive)
- GI50 (OVCAR-4): > 100 µM (inactive)
- GI50 (Hs-578T): > 100 µM (inactive)
- GI50 (MCF7): > 100 µM (inactive)
- GI50 (HOP-62): > 100 µM (inactive)
- GI50 (UACC-62): > 100 µM (inactive)
- GI50 (EKVX): > 100 µM (inactive)
- GI50 (NCI-H226): > 100 µM (inactive)
- GI50 (KM12): > 100 µM (inactive)
- GI50 (SK-MEL-28): > 100 µM (inactive)
- GI50 (K562): > 100 µM (inactive)
- GI50 (OVCAR-8): > 100 µM (inactive)

SMILES: COC(=O)n1c(C)c(C=O)c2ccc(OC)cc21
- GI50 (OVCAR-5): 54.7 µM (inactive)
- GI50 (SF-268): > 10 µM (inactive)
- GI50 (SK-OV-3): 33.8 µM (inactive)
- GI50 (IGROV-1): 38.6 µM (inactive)
- GI50 (786-0): 36 µM (inactive)
- GI50 (RXF 393): 30.6 µM (inactive)
- GI50 (TK-10): 22.8 µM (inactive)
- GI50 (HCC 2998): 25.9 µM (inactive)
- GI50 (SK-MEL-2): 33.2 µM (inactive)
- GI50 (HCT-116): 34.8 µM (inactive)
- GI50 (MDA-N): > 10 µM (inactive)
- GI50 (SN12C): 55.6 µM (inactive)
- GI50 (MDA-MB-435): 21.1 µM (inactive)
- GI50 (SF-539): 21.9 µM (inactive)
- GI50 (HL-60): 31.3 µM (inactive)
- GI50 (HCT-15): 31.1 µM
- GI50 (SK-MEL-5): 21.6 µM (inactive)
- GI50 (DU-145): 41.1 µM (inactive)
- GI50 (HT-29): 33.3 µM (inactive)
- GI50 (M14): 36.3 µM (inactive)
- GI50 (NCI-H23): 28.6 µM (inactive)
- GI50 (NCI/ADR-RES): 49.4 µM (inactive)
- GI50 (MOLT-4): 42.2 µM (inactive)
- GI50 (NCI-H522): 38.5 µM (inactive)
- GI50 (Malme-3M): 99.8 µM (inactive)
- GI50 (SNB-19): 42.7 µM (inactive)
- GI50 (A549): 43.7 µM (inactive)
- GI50 (BT-549): 26.7 µM (inactive)
- GI50 (MDA-MB-231): > 100 µM (inactive)
- GI50 (SNB-75): 31.3 µM (inactive)
- GI50 (PC-3): 31.9 µM (inactive)
- GI50 (COLO 205): 46.9 µM (inactive)
- GI50 (NCI-H460): 47.8 µM (inactive)
- GI50 (ACHN): 33.1 µM (inactive)
- GI50 (OVCAR-3): 59.6 µM (inactive)
- GI50 (SF-295): 24.9 µM (inactive)
- GI50 (LOX IMVI): 30.1 µM (inactive)
- GI50 (UACC-257): 45.2 µM (inactive)
- GI50 (CAKI-1): 38.9 µM (inactive)
- GI50 (SR): 34.5 µM (inactive)
- GI50 (T47D): 72.3 µM (inactive)
- GI50 (CCRF-CEM): 32.4 µM (inactive)
- GI50 (UO-31): 34.4 µM (inactive)
- GI50 (OVCAR-4): > 100 µM (inactive)
- GI50 (MCF7): 37.2 µM (inactive)
- GI50 (HOP-62): 16.4 µM (inactive)
- GI50 (UACC-62): 21 µM (inactive)
- GI50 (EKVX): 46.5 µM (inactive)
- GI50 (KM12): 36.4 µM (inactive)
- GI50 (K562): 38 µM (inactive)
- GI50 (OVCAR-8): 81.7 µM (inactive)
